Assay results as given in patent US10544113B2 (priority 2016, dated 2020).
Read-outs that look alike come from different tables or passages of the source.

Biological target: mu-opioid receptor (MOR) (Homo sapiens (Human), UniProt P35372)
Assay: cell-based
Settings: combined with a MOR antagonist; for AUC: AUC of [Ca2+]i fluorescence, CHO-K1/MOR/Gα15 cells
Method: In an exemplary in vitro screening method for identifying antagonist-to-agonist allosteric modifiers of a MOR, cells that express a MOR are treated with a test compound and a MOR antagonist in a cellular calcium fluorescent assay and fluorescence intensity is then measured to determine whether the MOR is activated. A test compound is identified as an antagonist-to-agonist allosteric modifier of the MOR if the MOR is activated.
EC50 herein refers to the concentration of a compound that induces a response halfway between the baseline and the maximum after a specified exposure time. AUC refers to the area under the response curve, an indication of the compound's capability of activating a MOR when combined with a MOR antagonist.
Human embryonic kidney 293 (HEK-293) cells constitutively expressing MOR (HEK-MOR) and DOR (HEK-DOR) (kindly provided by Dr. Ping-Yee Law, University of Minnesota, USA) were cultured in high-glucose Dulbecco's modified Eagle's medium (DMEM, GIBCO) supplemented with 400 μg/mL G418 (Sigma), 2 mM L-glutamine and P/S/F (100 units/mL penicillin, 100 μg/mL streptomycin, 10% fetal bovine serum). Chinese hamster ovary (CHO)-K1 cells, stably expressing hMOR and Gα15 (CHO-K1/MOR/Gα15), were cultured in F12 medium (GIBCO) supplemented with 10 μg/mL Hygromycin B (Invivogen), 20 μg/mL Zeocin (Invivogen) P/S/F (100 units/mL penicillin, 100 μg/mL streptomycin, 10% fetal bovine serum). The cultures were incubated at 37° C. in a humidified 5% CO2 incubator.
One day before the assay, CORNING® black with clear flat bottom 96-well assay plates were coated with a 0.1 mg/mL Poly-L-Lysine solution. CHO-K1/MOR/Gα15 cells were suspended in the F12 medium and plated at a density of ˜8×10^4 cells/well in 200 μL medium. Cells were incubated in a humidified atmosphere of 10% CO2 at 37° C. overnight so as to reach an 80-90% confluent cell monolayer before assay. At the day of assay, 150 μL medium/well was removed from plate. To each well, 50 μL FLIPR® calcium assay reagent dissolved in 1× assay buffer (HBSS: KCl 5 mM, KH2PO4 0.3 mM, NaCl 138 mM, NaHCO3 4 mM, Na2HPO4 0.3 mM, d-glucose 5.6 mM, with additional 20 mM HEPES and 13 mM CaCl2, pH 7.4), with 2.5 mM probenecid was added and the plate was incubated at 37° C. for 1 h. Compounds and other reagents were dissolved in the assay buffer. Using a FlexStationIII (Molecular Devices Corp.), the [Ca^2+]i fluorescence increases after robotic injections of compounds or other reagents were monitored every 1.52 s interval with excitation wavelength at 485 nm and with emission wavelength at 525 nm. The [Ca^2+]i fluorescence was measured up to 90 s after agonist injection.
A CHO-K1 cell line, expressing a MOR and Gα15 (GenScript), was used to set up a sensitive high-throughput screen (HTS) system. In a FLIPR® calcium assay using CHO-K1/MOR/Gα15 cells, activation of MOR elicits an intracellular calcium release leading to an increase in the relative fluorescence units (FRU). […] The HTS was performed in the absence or presence of an opioid antagonist, naloxone (25 nM), to identify antagonist to agonist allosteric modifiers (AAM).
A CHO-K1 cell line, expressing a MOR and Gα15 (GenScript), was used to set up a sensitive assay system for detecting μ-opioid receptor activation. […] The assay was performed in the presence of an opioid antagonist, i.e., naloxone (25 nM), naltrexone (20 nM), samidorphan (10 nM), naloxonazine dihydrochloride (20 nM), β-funaltrexamine hydrochloride (20 nM), cyprodime hydrochloride (500 nM), or nalmefene (20 nM), in combination with compound 58, an antagonist to agonist allosteric modifier (AAM), to identify activation of the μ-opioid receptor.

mu-opioid receptor (MOR), sequence (P35372 whole entry): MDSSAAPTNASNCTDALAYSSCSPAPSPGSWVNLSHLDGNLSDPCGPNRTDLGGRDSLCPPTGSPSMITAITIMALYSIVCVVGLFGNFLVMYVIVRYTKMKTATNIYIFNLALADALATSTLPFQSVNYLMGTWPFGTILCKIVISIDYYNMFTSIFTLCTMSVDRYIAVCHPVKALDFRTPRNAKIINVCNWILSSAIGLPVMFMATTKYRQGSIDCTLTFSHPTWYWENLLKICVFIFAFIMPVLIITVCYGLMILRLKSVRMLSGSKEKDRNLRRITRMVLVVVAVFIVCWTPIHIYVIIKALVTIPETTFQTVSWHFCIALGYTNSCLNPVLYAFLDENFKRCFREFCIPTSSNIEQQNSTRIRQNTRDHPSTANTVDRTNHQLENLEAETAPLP

SMILES	AUC	FLIPR Ca^2+ AUC	EC50 (read-out: FLIPR Ca^2+ EC50) [µM]	EC50 (EC50, CHO-K1/MOR/Gα15 cells) [µM]
N#Cc1cc(F)c(N2C(=O)CSC2c2ccc(F)cc2)c(F)c1 (centres unmarked) [Example 43]	more than 5000	12926	11.2	–
N#Cc1ccc(N2C(=O)CSC2c2ccc(F)cc2)cc1 (centres unmarked) [Example 37]	–	–	–	< 10
Cc1cc(C(=O)OCC2CCCC2)ccc1N1C(=O)CSC1c1ccc(F)cc1 (centres unmarked) [Example 239]	–	4342	9.4	< 10
Cc1cc(C(=O)OCCOCCOC(=O)c2ccc(N3C(=O)CSC3c3ccc(F)cc3)c(C)c2)ccc1N1C(=O)CSC1c1ccc(F)cc1 (centres unmarked) [Example 390]	more than 5000	7399	13.9	–
Cc1cc(C(=O)NOCc2ccccc2)ccc1N1C(=O)CSC1c1ccc(F)cc1 (centres unmarked) [Example 217]	–	9543	4.1	–
Cc1cc(C(=O)OC(C)CNC(=O)c2ccc[n+](C)c2)ccc1N1C(=O)CSC1c1ccc(F)cc1 (centres unmarked) [Example 328]	–	–	11.8	–
Cc1cc(C(=O)OCCCN2CCOCC2)ccc1N1C(=O)CSC1c1ccc(F)cc1 (centres unmarked) [Example 297]	–	13753	8.1	–
Cc1cc(C(=O)OCCc2scnc2C)ccc1N1C(=O)CSC1c1ccc(F)cc1 (centres unmarked) [Example 266]	–	12653	4.6	–
Cc1cc(C(=O)NS(=O)(=O)c2ccc(F)cc2)ccc1N1C(=O)CSC1c1ccc(F)cc1 (centres unmarked) [Example 196]	more than 5000	15620	1.1	< 10
CCNC(=O)c1ccc(N2C(=O)CSC2c2ccc(F)cc2)c(C)c1 (centres unmarked) [Example 335]	–	11180	4.2	< 10
Cc1cc(C(=O)OC(C)(C)C)ccc1N1C(=O)CSC1c1ccc(F)cc1 (centres unmarked) [Example 235]	–	15203	6.8	–
Cc1cc(C(=O)NS(=O)(=O)c2ccc(Br)cc2)ccc1N1C(=O)CSC1c1ccc(F)cc1 (centres unmarked) [Example 200]	more than 5000	12340	0.2	< 10
COC(=O)c1ccc(N2C(=O)CSC2c2ccsc2)c(C)c1 (centres unmarked) [Example 648, Methyl 3-methyl-4-[4-oxo-2-(thiophen-3-yl)-1,3-thiazolidin-3-yl]benzoate]	more than 5000	9356	2.01	< 10
Cc1cc(C)c(S(=O)(=O)NC(=O)c2ccc(N3C(=O)CSC3c3ccc(F)cc3)c(C)c2)c(C)c1 (centres unmarked) [Example 192]	more than 5000	11866	1.4	< 10
Cc1cc(C(=O)O)ccc1N1C(=O)CSC1c1cccc(C(F)(F)F)c1 (centres unmarked) [Example 74]	–	–	–	< 10
CNC(=O)c1ccc(N2C(=O)CSC2c2ccc(F)cc2)c(C)c1 (centres unmarked) [Example 331]	–	–	–	< 10
Cc1cc(C(=O)NS(=O)(=O)C(C)C)ccc1N1C(=O)CSC1c1ccc(F)cc1 (centres unmarked) [Example 165]	more than 5000	11927	22.6	–
Cc1cc(C(=O)OC(C)C)ccc1N1C(=O)CSC1c1ccc(F)cc1 (centres unmarked) [Example 231]	–	–	–	< 10
COCC(C)OC(=O)c1ccc(N2C(=O)CSC2c2ccc(F)cc2)c(C)c1 (centres unmarked) [Example 279]	–	10883	4.1	–
COc1cc(F)c(F)cc1N1C(=O)CSC1c1ccc(F)cc1 (centres unmarked) [Example 10, 3-(4,5-Difluoro-2-methoxyphenyl)-2-(4-fluorophenyl)thiazolidin-4-one]	–	6152	2	< 10
CSCCOC(=O)c1ccc(N2C(=O)CSC2c2ccc(F)cc2)c(C)c1 (centres unmarked) [Example 270]	–	–	–	< 10
